According to PubChem BioAssay AID504478 (NMMLSC, 2011):

Molecular target: Serine/threonine-protein kinase SCH9 (Saccharomyces cerevisiae (strain ATCC 204508 / S288c)) (UniProt P11792)
Assay: reduction of phospho-Sch9 levels in yeast cells – cell-based, HA-Sch9, immunoblot, mechanism study for yeast TOR pathway modulator project, SAR follow-up (AID 504478)
Conditions: S. cerevisiae HA-Sch9, T570 phospho immunoblot, 30 min

Serine/threonine-protein kinase SCH9 (Saccharomyces cerevisiae (strain ATCC 204508 / S288c)), sequence (P11792 whole entry, looked up): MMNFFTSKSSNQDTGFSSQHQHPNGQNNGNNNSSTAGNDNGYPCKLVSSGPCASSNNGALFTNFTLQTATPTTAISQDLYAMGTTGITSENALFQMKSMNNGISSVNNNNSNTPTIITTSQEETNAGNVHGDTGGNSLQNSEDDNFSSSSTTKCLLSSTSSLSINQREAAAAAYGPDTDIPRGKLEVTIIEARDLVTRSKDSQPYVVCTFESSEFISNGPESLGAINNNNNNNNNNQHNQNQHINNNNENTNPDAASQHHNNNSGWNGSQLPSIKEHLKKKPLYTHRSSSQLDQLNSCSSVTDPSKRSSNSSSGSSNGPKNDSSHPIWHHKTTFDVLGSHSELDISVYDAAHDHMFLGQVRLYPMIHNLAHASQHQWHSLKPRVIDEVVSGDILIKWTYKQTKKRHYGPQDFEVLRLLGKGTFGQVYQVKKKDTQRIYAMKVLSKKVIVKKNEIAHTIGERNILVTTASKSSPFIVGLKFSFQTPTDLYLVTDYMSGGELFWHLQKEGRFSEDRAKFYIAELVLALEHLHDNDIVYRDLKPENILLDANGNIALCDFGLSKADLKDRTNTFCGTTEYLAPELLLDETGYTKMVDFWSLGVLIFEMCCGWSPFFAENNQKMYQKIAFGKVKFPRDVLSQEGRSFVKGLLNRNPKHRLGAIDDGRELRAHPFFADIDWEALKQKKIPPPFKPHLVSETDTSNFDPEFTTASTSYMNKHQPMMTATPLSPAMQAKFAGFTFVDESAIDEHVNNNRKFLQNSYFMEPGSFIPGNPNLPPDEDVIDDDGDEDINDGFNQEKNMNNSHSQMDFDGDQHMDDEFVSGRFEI

IC50: 4.5 µM
SMILES: CNc1nc(N)c([N+](=O)[O-])c(Nc2cccc(F)c2)n1
